Source: patent US20040097435A1, “Method of treating parasitic infection” (Pfizer Inc, priority 2000, published 2004)
Like-named read-outs stand apart in the source and are kept apart here.

Assays:
[1] = tested on: ectoparasites such as fleas; details: companion animals; cited from earlier work
Toxocara cati = details: post partum day 49
Method: (§1) Thirty-eight adult females were allocated randomly to one of two treatments: placebo (negative control, 19 animals), or selamectin (19 animals). The selamectin, was formulated as: […]
(§2) Doses providing 6 mg/kg of selamectin were administered topically in a single spot on the skin of each female's back at the base of the neck in front of the shoulder blades on days 0 and 30 to individually-housed females and to females group-housed for mating on days 0, 30, 60 and 90 as required until kittening. All females were treated on post partum days 10 and 38. Treatments were not administered to kittens. […]. Study day 0 was defined individually for each adult female as the day on which the first treatment with either placebo or selamectin was administered and post partum day 1 was defined as the day following the day of delivery of the last kitten in the litter.
Each adult female was inoculated once with approximately 1000 embryonated T. cati ova, per os, between 150 and 31 days prior to commencing the study and again between 5 and 21 days before kittening.
On post partum day 49, each kitten was euthanased, its gastrointestinal tract was removed and intestinal larvae (L4) and adult T. cati were enumerated.

Ctenocephalides felis [2] = tested on: Ctenocephalides felis
Method: as §1, §2

Toxocara canis [3] = details: 6 mg/kg topical to dam
Method: (§3) Twenty-one adult females were allocated randomly to one of two treatments: placebo (negative control, 11 animals), or selamectin (10 animals). The selamectin, was formulated as: […]
(§4) Doses providing 6 mg/kg of selamectin were administered topically approximately 40 days and 10 days pre-partum and 10 days and 38 days post-partum in a single spot on the skin of each female's back at the base of the neck in front of the shoulder blades. Treatments were not administered to puppies. Post-partum day 1 was defined individually for each adult female as the day following the day of delivery of the last puppy in the litter.
(§5) Following observations of signs of pro-oestrus, the females were moved into randomly allocated carpeted pens in a building where the environment was suitable for the rapid completion of the flea reproductive cycle.
On post-partum day 45, each puppy was euthanised, its gastro-intestinal tract was removed and intestinal larval (L4) and adult T. canis were enumerated.

[4] = 6 mg/kg topical at monthly intervals during pregnancy and post-partum, female dogs
[5] = 6 mg/kg topical at monthly intervals during pregnancy and post partum, female cats
Toxocara canis [6] = details: 6 mg/kg topical to dam; for geometric mean faecal egg count: puppies born to treated females
Method: as §3, §4, §5
(§6) Each adult female was infested with 100 viable unfed adult C. felis approximately 60 days and 46 days pre-partum, and with 10 viable unfed adult fleas approximately 39, 33, 26, 19, 14 and 5 days pre-partum; an additional infestation was performed 7 days later if the female had not whelped. Each lactating female was also infested with 10 fleas on post-partum days 6, 15, 21, 28, 34 and 42. Comb counts of the number of viable adult fleas present on each female were made on approximately pre-partum days 41 and 11, and on postpartum days 9, 37 and 45. Comb counts of the fleas present on each puppy were performed on post-partum days 15, 24, 34, 42 and 45. After counting, up to 50 fleas per pregnant/lactating female and up to five fleas per puppy were replaced on each dog. For welfare reasons, if any dog was scratching or grooming excessively, additional unscheduled comb counts were performed on that dog and if necessary, the carpet was partially or entirely replaced to reduce the environmental flea challenge. Faecal egg counts for T. canis were performed for pregnant/lactating females on approximately pre-partum day 2 and on post-partum days 9, 17, 24 and 45, and for puppies on post-partum days 24 and 34.

Ctenocephalides felis [7] = tested on: Ctenocephalides felis; remark: listed apart in the source
Method: as §3, §4, §5, §6

intestinal nematode = details: administered to pregnant bitch from pregnancy past parturition; Veterinary Parasitology, 1999, 85, 305; cited from earlier work
[8] = kittens at necropsy, 6 mg/kg topical to dam

Compound	activity against ectoparasites such as fleas [1]	geometric mean L4 T. cati count (Toxocara cati; [8])	geometric mean adult T. cati count (Toxocara cati; [8])	reduction in mean adult T. cati count compared with kittens born to placebo-treated females (Toxocara cati) [%]	reduction in mean fourth stage larvae (L4) T. cati count compared with kittens born to placebo-treated females (Toxocara cati) [%]	females or their kittens requiring additional flea control measures (Ctenocephalides felis [2]; after the first treatment on day 0, to maintain flea burdens within acceptable limits)	reduction in mean flea comb counts compared with kittens born to placebo-treated females (Ctenocephalides felis [2]; kittens, all counting days (post partum days 15, 24, 34, 42 and 49)) [%]	geometric mean flea comb count (Ctenocephalides felis [2]; kittens, all counting days (post partum days 15, 24, 34, 42 and 49), 6 mg/kg topical to dam)	reduction in mean adult T. canis count compared with puppies born to placebo-treated females (Toxocara canis [3]; necropsy post partum day 45) [%]	geometric mean adult T. canis worm count (Toxocara canis [3]; puppies at necropsy, post-partum day 45)	safety of treatment [4]	safety of treatment [5]	reduction in mean faecal egg count compared with puppies born to placebo-treated females (Toxocara canis [6]; post-partum day 24) [%]	reduction in mean faecal egg count compared with puppies born to placebo-treated females (Toxocara canis [6]; post-partum day 34) [%]	geometric mean faecal egg count (Toxocara canis [6]; post-partum day 24) [epg]	geometric mean faecal egg count (Toxocara canis [6]; post-partum day 34) [epg]	reduction in mean flea comb counts compared with puppies born to placebo-treated females (Ctenocephalides felis [7]; puppies, all counting days (post-partum days 15, 24, 34, 42 and 45)) [%]	geometric mean flea comb count (Ctenocephalides felis [7]; puppies, all counting days (post-partum days 15, 24, 34, 42 and 45), 6 mg/kg topical to dam)	females or their puppies requiring additional flea control measures (Ctenocephalides felis [7]; to maintain flea burdens within acceptable limits)	prevention of intestinal nematode infections in pups (intestinal nematode)
CO[C@H]1C[C@H](O[C@H]2[C@H](C)O[C@@H](O[C@@H]3/C(C)=C/C[C@@H]4C[C@@H](C[C@]5(C=C[C@H](C)[C@@H](C6CCCCC6)O5)O4)OC(=O)[C@@H]4C=C(C)[C@@H](O)[C@H]5OC/C(=C\C=C\[C@@H]3C)[C@]54O)C[C@@H]2OC)O[C@@H](C)[C@@H]1O [doramectin]	poor activity	–	–	–	–	–	–	–	–	–	–	–	–	–	–	–	–	–	–	–
CO[C@H]1C[C@H](O[C@@H]2/C(C)=C/C[C@@H]3C[C@@H](C[C@]4(CC[C@H](C)[C@@H](C5CCCCC5)O4)O3)OC(=O)[C@@H]3C=C(C)/C(=N/O)[C@H]4OC/C(=C\C=C\[C@@H]2C)[C@]43O)O[C@@H](C)[C@@H]1O [selamectin]	–	0.0	0.0	100	100	none	100	zero	98.2	0.1	safe	safe	96.8	96.1	0.8	2.1	100.0	0	None	–
ivermectin	poor activity	–	–	–	–	–	–	–	–	–	–	–	–	–	–	–	–	–	–	can prevent intestinal nematode infections in pups
